This note sets out measurements from ChEMBL document CHEMBL4392824, “Design, synthesis and bioevaluation of 3-oxo-6-aryl-2,3-dihydropyridazine-4-carbohydrazide derivatives as novel xanthine oxidase inhibitors” (Bioorg Med Chem, 2019).

Where only a bound is given, the exact number is not on record here.

What is called IC50 is the concentration that inhibits the measured activity by half. The term inhibition denotes the share of the control response that was lost under treatment.

Data set [1] addresses T1, Xanthine dehydrogenase/oxidase (Bos taurus, UniProt P80457). The experiment in a line: Inhibition of bovine xanthine oxidase assessed as reduction in uric acid formation preincubated for 5 mins followed by xanthine addition and measured after 20 mins by spectrophotometry.
Data set [2] addresses T1, Xanthine dehydrogenase/oxidase. The experiment in a line: Inhibition of bovine xanthine oxidase assessed as reduction in uric acid formation at 10 uM preincubated for 5 mins followed by xanthine addition and measured after 20 mins by spectrophotometry. Conditions: cattle; call rule not given here.
Data set [3] has the same target. The experiment in a line: Mixed type inhibition of bovine xanthine oxidase assessed as reduction in uric acid formation at 0.5 to 2 uM preincubated for 5 mins followed by xanthine addition and measured after 20 mins by spectrophotometry based Lineweaver-Burk plot analysis. Conditions: cattle.

T1 sequence (P80457 whole entry): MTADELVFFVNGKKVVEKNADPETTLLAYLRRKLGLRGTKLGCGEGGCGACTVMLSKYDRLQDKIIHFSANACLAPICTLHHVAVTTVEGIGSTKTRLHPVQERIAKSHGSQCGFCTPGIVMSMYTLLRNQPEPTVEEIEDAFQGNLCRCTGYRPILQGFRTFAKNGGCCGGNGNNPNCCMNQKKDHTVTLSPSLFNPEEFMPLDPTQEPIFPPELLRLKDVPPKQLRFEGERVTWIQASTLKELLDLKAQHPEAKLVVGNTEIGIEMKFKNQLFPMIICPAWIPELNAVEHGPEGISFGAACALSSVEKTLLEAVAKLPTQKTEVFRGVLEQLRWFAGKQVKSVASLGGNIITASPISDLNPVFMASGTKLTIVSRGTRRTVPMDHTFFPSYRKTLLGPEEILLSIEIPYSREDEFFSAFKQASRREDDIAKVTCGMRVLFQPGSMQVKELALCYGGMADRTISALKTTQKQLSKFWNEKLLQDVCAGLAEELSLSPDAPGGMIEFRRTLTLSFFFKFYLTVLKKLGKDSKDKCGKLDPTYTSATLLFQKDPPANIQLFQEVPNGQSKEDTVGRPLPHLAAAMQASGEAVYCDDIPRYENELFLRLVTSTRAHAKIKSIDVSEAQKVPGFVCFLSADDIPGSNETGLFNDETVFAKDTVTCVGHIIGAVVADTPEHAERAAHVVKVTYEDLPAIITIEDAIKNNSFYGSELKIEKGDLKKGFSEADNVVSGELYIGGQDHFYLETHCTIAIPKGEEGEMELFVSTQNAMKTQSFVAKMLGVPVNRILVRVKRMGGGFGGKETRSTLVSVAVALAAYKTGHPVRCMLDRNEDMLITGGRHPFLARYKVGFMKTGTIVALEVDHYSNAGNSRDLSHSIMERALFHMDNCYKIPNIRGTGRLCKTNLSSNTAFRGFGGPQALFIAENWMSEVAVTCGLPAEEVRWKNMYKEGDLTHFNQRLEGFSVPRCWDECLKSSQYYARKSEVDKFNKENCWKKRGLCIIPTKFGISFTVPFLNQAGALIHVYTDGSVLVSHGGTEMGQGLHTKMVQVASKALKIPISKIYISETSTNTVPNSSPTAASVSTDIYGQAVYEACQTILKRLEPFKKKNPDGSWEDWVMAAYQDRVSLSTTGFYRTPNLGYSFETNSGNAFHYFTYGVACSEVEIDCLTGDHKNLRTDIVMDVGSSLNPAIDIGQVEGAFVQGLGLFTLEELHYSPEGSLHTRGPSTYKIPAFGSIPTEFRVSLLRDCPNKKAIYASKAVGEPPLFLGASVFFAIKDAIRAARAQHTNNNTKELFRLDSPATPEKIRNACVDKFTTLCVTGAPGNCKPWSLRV

Take `NNC(=O)c1cc(-c2ccccc2)n[nH]c1=O`: in data set [1], the IC50 entry is “Not Active”. In addition, the inhibition at 10 µM in data set [2] was less than 50%.
Regarding `CC(C)CCOc1ccc(-c2cc(C(=O)NN)c(=O)[nH]n2)cc1C#N`, the IC50 in data set [1] (read-out: IC50) was found to be 4.5 µM.
For `CCOc1ccc(-c2cc(C(=O)NN)c(=O)[nH]n2)cc1C#N`, the IC50 in data set [1] (read-out: IC50) amounted to 2.54 µM.
Regarding `NNC(=O)c1cc(-c2cccc([N+](=O)[O-])c2)n[nH]c1=O`, the IC50 result in data set [1] is listed as “Not Active”. Further, in data set [2], the inhibition at 10 µM is less than 50%.
Consider `CC(C)COc1ccc(-c2cc(C(=O)NN)c(=O)[nH]n2)cc1[N+](=O)[O-]`, for which, in data set [1] (read-out: IC50), the IC50 was found to be 3.65 µM.
For the compound `CC(C)COc1ccc(-c2cc(C(=O)NN)c(=O)[nH]n2)cc1`, in data set [1], the IC50 entry was “Not Active”. Further, in data set [2], the inhibition at 10 µM is less than 50%.
For `NNC(=O)c1cc(-c2ccc([N+](=O)[O-])cc2)n[nH]c1=O`, in data set [1], the IC50 entry is “Not Active”. Also, in data set [2], the inhibition at 10 µM was less than 50%.
For the compound `CC(C)Oc1ccc(-c2cc(C(=O)NN)c(=O)[nH]n2)cc1[N+](=O)[O-]`, in data set [1] (read-out: IC50), the IC50 came to 1.92 µM.
For `CC(C)COc1ccc(-c2cc(C(=O)O)c(=O)[nH]n2)cc1C#N`, the IC50 entry in data set [1] is listed as “Not Active”. For the same compound, the inhibition at 10 µM in data set [2] is less than 50%.
Regarding `CC(C)Oc1ccc(-c2cc(C(=O)NN)c(=O)[nH]n2)cc1`, the IC50 result in data set [1] is recorded as “Not Active”. Moreover, in data set [2], the inhibition at 10 µM is less than 50%.
In the case of `CC(C)Oc1ccc(-c2cc(C(=O)NN)c(=O)[nH]n2)cc1C#N`, the IC50 in data set [1] (read-out: IC50) worked out at 1.03 µM. For the same compound, the “inhibition (INH)” value in data set [3] is “Active”.
As to `CC(C)CCOc1ccc(-c2cc(C(=O)O)c(=O)[nH]n2)cc1C#N`, the IC50 entry in data set [1] is “Not Active”. Also, in data set [2], the inhibition at 10 µM was less than 50%.
For `CCCOc1ccc(-c2cc(C(=O)NN)c(=O)[nH]n2)cc1C#N`, the IC50 in data set [1] (read-out: IC50) was 3.1 µM.
The same measure, in the same setting: the result for `CCCCCOc1ccc(-c2cc(C(=O)NN)c(=O)[nH]n2)cc1C#N` reads 5.89 µM.
Turning to `CC(C)Oc1ccc(-c2cc(C(=O)O)c(=O)[nH]n2)cc1[N+](=O)[O-]`, the IC50 result in data set [1] was “Not Active”. In data set [2], the inhibition at 10 µM was less than 50%.
With `CCCCOc1ccc(-c2cc(C(=O)NN)c(=O)[nH]n2)cc1C#N`, in data set [1] (read-out: IC50), the IC50 turned out to be 5.24 µM.
`CC(C)COc1ccc(-c2cc(C(=O)NN)c(=O)[nH]n2)cc1C#N`: the IC50 in data set [1] (read-out: IC50) was 2.97 µM.
Take `CC(C)CCOc1ccc(-c2cc(C(=O)NN)c(=O)[nH]n2)cc1[N+](=O)[O-]`: the IC50 in data set [1] (read-out: IC50) is 6.02 µM.
